Measurements published in ChEMBL document CHEMBL1909046, “DrugMatrix in vitro pharmacology data”.

How the values were obtained:
[1] = DRUGMATRIX: GABAA, Muscimol, Central radioligand binding (ligand: [3H] Muscimol); type: cell membranes, Rattus norvegicus, Wistar, Brain, Membrane; details: Not Active = under 50% inhibition at 10 µM
[2] = target: T1, Cholecystokinin receptor type A (Homo sapiens, UniProt P32238); type: cell membranes, Membrane; details: 1321-n1; further: in other assays of this panel Not Active means under 50% inhibition at 10 µM
T1 sequence (P32238 whole entry): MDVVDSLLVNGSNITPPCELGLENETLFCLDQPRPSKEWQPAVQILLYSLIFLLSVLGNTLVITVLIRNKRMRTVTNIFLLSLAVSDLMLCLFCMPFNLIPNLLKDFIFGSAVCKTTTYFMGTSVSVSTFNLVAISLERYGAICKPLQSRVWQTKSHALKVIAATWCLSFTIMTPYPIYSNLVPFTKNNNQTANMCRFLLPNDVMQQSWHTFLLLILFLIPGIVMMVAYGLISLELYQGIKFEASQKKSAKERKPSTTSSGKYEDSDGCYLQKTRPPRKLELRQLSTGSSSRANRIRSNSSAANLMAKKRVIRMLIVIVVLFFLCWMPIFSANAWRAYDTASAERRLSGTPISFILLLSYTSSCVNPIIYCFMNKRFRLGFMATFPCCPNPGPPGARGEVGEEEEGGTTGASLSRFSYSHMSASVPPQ

D(1A) dopamine receptor = D(1A) dopamine receptor (Homo sapiens, UniProt P21728); assay: DRUGMATRIX: Dopamine D1 radioligand binding (ligand: [3H] SCH-23390); type: cell membranes, Membrane; details: cho; Not Active = under 50% inhibition at 10 µM
[3] = DRUGMATRIX: Calcium Channel Type L, Dihydropyridine radioligand binding (ligand: [3H] Nitrendipine); type: cell membranes, Rattus norvegicus, Wistar, Cerebral cortex, Membrane; details: Not Active = under 50% inhibition at 10 µM
[4] = target: Tyrosine-protein kinase Lck (Homo sapiens, UniProt P06239); assay: DRUGMATRIX: Protein Tyrosine Kinase, LCK enzyme inhibition (substrate: Poly(Glu:Tyr)); type: cell-based, Insect cells; details: insect cells; Not Active = under 50% inhibition at 10 µM
Substance-K receptor = target: T2, Substance-K receptor (Homo sapiens, UniProt P21452); type: cell membranes, CHO, Membrane; details: for Ki: read-out: Ki; on all read-outs here: in other assays of this panel Not Active means under 50% inhibition at 10 µM
T2 sequence (P21452 whole entry): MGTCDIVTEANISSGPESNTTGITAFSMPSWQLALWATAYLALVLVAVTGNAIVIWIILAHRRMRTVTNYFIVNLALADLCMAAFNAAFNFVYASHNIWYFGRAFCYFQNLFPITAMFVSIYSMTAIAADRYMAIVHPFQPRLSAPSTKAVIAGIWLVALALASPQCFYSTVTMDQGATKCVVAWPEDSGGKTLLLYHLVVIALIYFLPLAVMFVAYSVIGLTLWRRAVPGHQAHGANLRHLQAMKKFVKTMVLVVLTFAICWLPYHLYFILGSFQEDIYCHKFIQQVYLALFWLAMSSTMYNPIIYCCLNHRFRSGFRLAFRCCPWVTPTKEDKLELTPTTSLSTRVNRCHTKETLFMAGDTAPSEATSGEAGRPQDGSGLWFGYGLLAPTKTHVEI

Thromboxane-A synthase = target: T3, Thromboxane-A synthase (Homo sapiens, UniProt P24557); assay: biochemical; type: tissue-based, Platelet;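 further: enzyme inhibition assay with PGH2 supplied as substrate; in other assays of this panel Not Active means under 50% inhibition at 10 µM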
T3 sequence (P24557 whole entry): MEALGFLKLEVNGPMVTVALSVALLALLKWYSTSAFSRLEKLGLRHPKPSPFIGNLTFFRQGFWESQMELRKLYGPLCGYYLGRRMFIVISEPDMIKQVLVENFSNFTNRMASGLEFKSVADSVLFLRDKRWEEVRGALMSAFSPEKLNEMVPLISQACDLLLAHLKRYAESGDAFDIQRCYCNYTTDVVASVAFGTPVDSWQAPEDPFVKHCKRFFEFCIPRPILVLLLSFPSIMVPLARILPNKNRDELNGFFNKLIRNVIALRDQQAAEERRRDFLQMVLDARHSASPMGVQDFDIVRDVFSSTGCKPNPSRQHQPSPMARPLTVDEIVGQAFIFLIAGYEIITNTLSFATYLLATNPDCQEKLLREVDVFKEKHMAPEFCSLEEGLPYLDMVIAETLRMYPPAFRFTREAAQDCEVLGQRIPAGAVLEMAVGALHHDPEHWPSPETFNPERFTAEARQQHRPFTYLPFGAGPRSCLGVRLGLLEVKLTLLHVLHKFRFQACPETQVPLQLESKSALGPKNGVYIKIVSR

[5] = DRUGMATRIX: Platelet-Derived Growth Factor (PDGF) radioligand binding (ligand: [125I] PDGF); type: cell-based; details: nih3t3; Not Active = under 50% inhibition at 10 µM
Cytochrome P450 1A2 = target: T4, Cytochrome P450 1A2 (Homo sapiens, UniProt P05177); details: bti-tn-5b1-4; further: in other assays of this panel Not Active means under 50% inhibition at 10 µM
T4 sequence (P05177 whole entry): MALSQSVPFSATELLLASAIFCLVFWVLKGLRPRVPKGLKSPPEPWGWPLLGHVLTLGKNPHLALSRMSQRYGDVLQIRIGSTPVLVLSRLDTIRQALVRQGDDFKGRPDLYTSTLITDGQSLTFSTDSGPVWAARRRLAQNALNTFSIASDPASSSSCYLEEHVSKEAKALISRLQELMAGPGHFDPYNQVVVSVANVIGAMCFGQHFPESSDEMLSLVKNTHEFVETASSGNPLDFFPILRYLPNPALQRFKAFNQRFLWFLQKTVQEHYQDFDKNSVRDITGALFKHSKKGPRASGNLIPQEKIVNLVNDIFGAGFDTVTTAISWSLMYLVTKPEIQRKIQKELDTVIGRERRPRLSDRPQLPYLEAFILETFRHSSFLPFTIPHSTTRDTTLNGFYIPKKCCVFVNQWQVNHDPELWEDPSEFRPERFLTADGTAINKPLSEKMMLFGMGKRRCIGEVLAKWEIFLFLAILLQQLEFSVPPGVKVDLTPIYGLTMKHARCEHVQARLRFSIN

Progesterone receptor = target: T5, Progesterone receptor (Bos taurus, UniProt Q690N0); assay: DRUGMATRIX: Progesterone radioligand binding (ligand: [3H] R-5020); type: tissue-based, Uterus; details: Not Active = under 50% inhibition at 10 µM
T5 sequence (Q690N0 whole entry): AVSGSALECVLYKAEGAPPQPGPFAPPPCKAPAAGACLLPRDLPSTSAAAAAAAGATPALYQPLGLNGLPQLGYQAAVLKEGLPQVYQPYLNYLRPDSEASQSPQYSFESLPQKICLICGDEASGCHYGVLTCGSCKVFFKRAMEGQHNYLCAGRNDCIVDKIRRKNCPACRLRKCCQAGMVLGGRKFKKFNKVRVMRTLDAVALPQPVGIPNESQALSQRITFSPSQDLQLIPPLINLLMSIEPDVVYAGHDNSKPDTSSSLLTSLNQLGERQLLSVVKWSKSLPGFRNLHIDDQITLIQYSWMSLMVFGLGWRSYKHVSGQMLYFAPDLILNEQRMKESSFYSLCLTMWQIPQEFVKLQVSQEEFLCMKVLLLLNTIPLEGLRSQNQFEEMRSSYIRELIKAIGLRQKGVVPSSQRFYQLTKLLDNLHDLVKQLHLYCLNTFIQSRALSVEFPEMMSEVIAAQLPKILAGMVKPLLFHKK

Tyrosine-protein kinase Lck, sequence (P06239 whole entry): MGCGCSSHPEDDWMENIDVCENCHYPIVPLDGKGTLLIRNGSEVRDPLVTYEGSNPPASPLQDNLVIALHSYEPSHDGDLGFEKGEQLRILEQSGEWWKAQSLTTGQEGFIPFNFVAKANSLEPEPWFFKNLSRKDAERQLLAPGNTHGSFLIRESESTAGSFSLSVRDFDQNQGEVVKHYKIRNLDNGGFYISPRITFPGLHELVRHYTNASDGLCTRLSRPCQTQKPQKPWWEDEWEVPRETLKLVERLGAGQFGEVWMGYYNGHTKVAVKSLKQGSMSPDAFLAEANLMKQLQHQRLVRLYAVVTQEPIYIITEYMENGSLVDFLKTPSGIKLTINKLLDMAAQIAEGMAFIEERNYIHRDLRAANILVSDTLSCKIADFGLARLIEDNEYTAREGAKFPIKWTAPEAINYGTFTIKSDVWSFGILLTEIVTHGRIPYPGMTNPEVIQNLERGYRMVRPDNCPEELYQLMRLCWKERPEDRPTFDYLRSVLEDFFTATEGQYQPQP
D(1A) dopamine receptor, sequence (P21728 whole entry): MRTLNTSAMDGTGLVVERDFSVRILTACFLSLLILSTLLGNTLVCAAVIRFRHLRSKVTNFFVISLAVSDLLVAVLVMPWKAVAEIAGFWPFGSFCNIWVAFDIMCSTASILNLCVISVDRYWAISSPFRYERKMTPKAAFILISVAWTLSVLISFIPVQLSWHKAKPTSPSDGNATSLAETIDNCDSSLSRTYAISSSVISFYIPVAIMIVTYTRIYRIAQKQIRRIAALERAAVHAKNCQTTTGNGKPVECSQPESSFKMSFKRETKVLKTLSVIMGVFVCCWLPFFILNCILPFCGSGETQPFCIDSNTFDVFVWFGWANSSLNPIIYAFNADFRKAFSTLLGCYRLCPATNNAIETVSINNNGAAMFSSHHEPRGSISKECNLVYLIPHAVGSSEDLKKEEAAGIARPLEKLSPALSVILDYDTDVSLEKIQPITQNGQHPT

Row | Compound | IC50 [1] | Ki [1] | IC50 [2] | IC50 (D(1A) dopamine receptor) | IC50 [3] | Ki [3] | IC50 [4] | IC50 (Substance-K receptor; cho) | IC50 (Thromboxane-A synthase; platelet) | IC50 [5] | Ki [5] | IC50 (Cytochrome P450 1A2) | Ki (Cytochrome P450 1A2) | IC50 (Progesterone receptor) | IC50 (Substance-K receptor; read-out: IC50) | Ki (Substance-K receptor) | IC50 (Thromboxane-A synthase; read-out: IC50) | Ki (Progesterone receptor; read-out: Ki) | IC50 ([3]; read-out: IC50) | Ki ([3]; read-out: Ki)
1 | CC1=C(CC(=O)O)c2cc(F)ccc2/C1=C\c1ccc([S+](C)[O-])cc1 (configuration not stated) | Not Active | Not Active | Not Active | Not Active | Not Active | Not Active | Not Active | Not Active | Not Active | Not Active | Not Active | Not Active | Not Active | Not Active |  |  |  |  |  | 
2 | N[C@H](CSC(=S)NCc1ccccc1)C(=O)O | Not Active | Not Active | Not Active | Not Active | Not Active | Not Active | Not Active | Not Active | Not Active | Not Active | Not Active | Not Active | Not Active | Not Active |  |  |  |  |  | 
3 | CC(=O)N[C@@H]1[C@H](Oc2c3cc4cc2Oc2ccc(cc2Cl)[C@@H](O[C@@H]2O[C@@H](CO)[C@@H](O)[C@H](O)[C@@H]2NC(C)=O)[C@@H]2NC(=O)[C@H](NC(=O)[C@@H]4NC(=O)[C@H]4NC(=O)[C@@H](Cc5ccc(c(Cl)c5)O3)NC(=O)[C@H](N)c3ccc(O)c(c3)Oc3cc(O)cc4c3)c3ccc(O)c(c3)-c3c(O[C@H]4O[C@H](CO)[C@@H](O)[C@@H](O)[C@@H]4O)cc(O)cc3[C@@H](C(=O)O)NC2=O)O[C@@H](CO)[C@@H](O)[C@@H]1O | Not Active | Not Active | Not Active | Not Active | Not Active | Not Active | Not Active | Not Active | Not Active | Not Active | Not Active | Not Active | Not Active | Not Active |  |  |  |  |  | 
4 | Clc1ccc2c(c1)C(N1CCNCC1)=Nc1ccccc1O2 [AMOXAPINE] |  |  | Not Active |  |  |  | Not Active | Not Active | Not Active |  |  | Not Active | Not Active | Not Active |  |  |  |  |  | 
5 | COc1cc2c(c(OC)c1OC)-c1ccc(OC)c(=O)cc1[C@@H](NC(C)=O)CC2 [COLCHICINE] |  |  | Not Active |  |  |  | Not Active | Not Active | Not Active |  |  |  |  | Not Active |  |  |  |  |  | 
6 | CN1CCC(=C2c3ccccc3C=Cc3ccccc32)CC1 [CYPROHEPTADINE] |  |  | Not Active |  |  |  | Not Active | Not Active | Not Active |  |  | Not Active | Not Active | Not Active |  |  |  |  |  | 
7 | CC/C(=C(/CC)c1ccc(O)cc1)c1ccc(O)cc1 [DIETHYLSTILBESTROL] |  |  | Not Active |  |  |  | Not Active |  |  |  |  | Not Active | Not Active |  | 9550 nM | 3180 nM | 4360 nM | 611 nM |  | 
8 | CC(=O)N1CCN(c2ccc(OCC3COC(Cn4ccnc4)(c4ccc(Cl)cc4Cl)O3)cc2)CC1 (configuration not stated) [KETOCONAZOLE] | Not Active | Not Active | Not Active | Not Active | Not Active | Not Active | Not Active |  |  | Not Active | Not Active | Not Active | Not Active | Not Active | 17200 nM | 5750 nM | 2170 nM |  |  | 
9 | C=CCN1CC[C@]23c4c5ccc(O)c4O[C@H]2C(=O)CC[C@@]3(O)[C@H]1C5 [NALOXONE] |  |  | Not Active |  |  |  | Not Active | Not Active | Not Active |  |  |  |  | Not Active |  |  |  |  |  | 
10 | COCCOC(=O)C1=C(C)NC(C)=C(C(=O)OC(C)C)C1c1cccc([N+](=O)[O-])c1 (configuration not stated) [NIMODIPINE] | Not Active | Not Active | Not Active | Not Active |  |  | Not Active | Not Active | Not Active | Not Active | Not Active |  |  | Not Active |  |  |  |  | 0.242 nM | 0.156 nM
11 | CC(C)NCC(O)COc1cccc2ccccc12 (configuration not stated) [PROPRANOLOL] |  |  | Not Active |  |  |  | Not Active | Not Active | Not Active |  |  |  |  | Not Active |  |  |  |  |  | 
12 | O=C(c1ccc(OCCN2CCCCC2)cc1)c1c(-c2ccc(O)cc2)sc2cc(O)ccc12 [RALOXIFENE] | Not Active | Not Active | Not Active |  |  |  | Not Active |  | Not Active | Not Active | Not Active | Not Active | Not Active | Not Active | 3990 nM | 1330 nM |  |  | 388 nM | 249 nM
13 | CC(C)c1nc(CN(C)C(=O)N[C@H](C(=O)N[C@@H](Cc2ccccc2)C[C@H](O)[C@H](Cc2ccccc2)NC(=O)OCc2cncs2)C(C)C)cs1 [RITONAVIR] | Not Active | Not Active | Not Active | Not Active | Not Active | Not Active | Not Active |  |  | Not Active | Not Active |  |  | Not Active |  |  |  |  |  | 
14 | CC(C)(C)c1ccc(C(O)CCCN2CCC(C(O)(c3ccccc3)c3ccccc3)CC2)cc1 (configuration not stated) [TERFENADINE] | Not Active | Not Active | Not Active |  |  |  | Not Active |  | Not Active | Not Active | Not Active | Not Active | Not Active | Not Active | 2680 nM | 892 nM |  |  | 779 nM | 501 nM
15 | C[C@@H](N)[C@H]1CC[C@H](C(=O)Nc2ccncc2)CC1 [Y-27632] | Not Active | Not Active | Not Active | Not Active | Not Active | Not Active |  | Not Active | Not Active | Not Active | Not Active | Not Active | Not Active | Not Active |  |  |  |  |  | 
